Test results published in patent publication US9790188B2, “Benzimidazole derivatives and uses thereof” (Whitehead Institute for Biomedical Research, priority 2013, dated 2017).

How the values were obtained:
WT yeast = test: Growth inhibition of wild-type yeast (dose-response); format: cell-based; conditions: relative to parent ABI1
Method: (§1) Source plates were assembled in 96 well plates using multichannel pipettes to dilute rows in 1.6-fold serial dilutions of CSMGal. […] For α-syn, the final starting OD600 was 0.02. Drug concentration ranges varied depending on efficacy, growth inhibition, and solubility in media. A Tecan EvoFreedom liquid handling robot was then used to transfer culture from 96 to 384 well format with each well being represented four times. Final well volume was 35 μL. Plates were then incubated in humidified containers at 30° C. for either 24 or 40 hours. Plates were then read with a Tecan Saphire plate reader at OD600.
(§2) Raw OD600 values were transformed to “Relative Growth” in WT cells or “% Maximum Rescue” in α-syn experiments. In WT cells, the well background was subtracted and all values were then normalized to 100% for the untreated condition. In α-syn rescue experiments, the well background was subtracted and the maximum rescue in the particular experiment was normalized to 100%.

α-syn = test: Yeast growth rescue from α-syn toxicity (dose-response); format: cell-based; conditions: relative to parent ABI1
Method: For galactose-induction experiments, overnight cultures were grown in CSM/2% glucose to saturation and diluted 1:20 into CSM/2% raffinose for ˜2 generations. Cultures were then diluted into CSM/2% galactose at an optimum OD600 for the experiment (see ‘Growth assays’).
as §1, §2

**Q.** Which “shift of concentrations for ability to inhibit growth” value (WT yeast) does the source give for Cc1cc(C)cc(-n2cnc3cc(C(=O)NCc4ccccc4Cl)ccc32)c1 [ABI3, N-(2-chlorobenzyl)-1-(3,5-dimethylphenyl)-1H-benzo[d]imidazole-5-carboxamide] here?
**A.** Its value is “higher”.

**Q.** And the “shift of concentrations for efficacy against α-syn” value (α-syn)?
**A.** Its value is “higher”.
